Reference: patent US10168342B2, “Lipid probes and uses thereof” (THE SCRIPPS RESEARCH INSTITUTE, priority 2015, dated 2019)
Read-outs that look alike come from different tables or passages of the source.

What was measured:
[1] = target: T1, AEA-DA lipid probe targets in Neuro2a cells (Mus musculus, UniProt P10404)
T1 sequence (P10404 33-641): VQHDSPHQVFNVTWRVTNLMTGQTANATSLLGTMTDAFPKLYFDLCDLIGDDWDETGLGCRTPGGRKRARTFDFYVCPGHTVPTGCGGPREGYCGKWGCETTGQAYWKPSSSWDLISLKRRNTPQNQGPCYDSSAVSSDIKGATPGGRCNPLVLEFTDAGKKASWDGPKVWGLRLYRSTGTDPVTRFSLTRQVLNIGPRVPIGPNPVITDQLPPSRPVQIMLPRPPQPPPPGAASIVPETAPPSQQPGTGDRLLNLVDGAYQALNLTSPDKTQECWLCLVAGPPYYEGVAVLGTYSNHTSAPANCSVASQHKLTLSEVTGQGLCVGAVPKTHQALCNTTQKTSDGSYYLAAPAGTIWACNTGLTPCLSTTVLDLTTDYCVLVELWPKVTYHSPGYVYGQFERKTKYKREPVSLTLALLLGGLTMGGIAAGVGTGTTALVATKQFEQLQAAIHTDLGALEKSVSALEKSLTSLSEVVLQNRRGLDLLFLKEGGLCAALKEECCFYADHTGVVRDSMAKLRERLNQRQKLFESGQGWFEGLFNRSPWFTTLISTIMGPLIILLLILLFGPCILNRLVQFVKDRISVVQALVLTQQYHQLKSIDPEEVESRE

[2] = target: AEA-DA lipid probe targets in Neuro2a cells (Mus musculus, UniProt P57716)
Chain of AEA-DA lipid probe targets in Neuro2a cells (Mus musculus, UniProt P57716) (P57716 28-708): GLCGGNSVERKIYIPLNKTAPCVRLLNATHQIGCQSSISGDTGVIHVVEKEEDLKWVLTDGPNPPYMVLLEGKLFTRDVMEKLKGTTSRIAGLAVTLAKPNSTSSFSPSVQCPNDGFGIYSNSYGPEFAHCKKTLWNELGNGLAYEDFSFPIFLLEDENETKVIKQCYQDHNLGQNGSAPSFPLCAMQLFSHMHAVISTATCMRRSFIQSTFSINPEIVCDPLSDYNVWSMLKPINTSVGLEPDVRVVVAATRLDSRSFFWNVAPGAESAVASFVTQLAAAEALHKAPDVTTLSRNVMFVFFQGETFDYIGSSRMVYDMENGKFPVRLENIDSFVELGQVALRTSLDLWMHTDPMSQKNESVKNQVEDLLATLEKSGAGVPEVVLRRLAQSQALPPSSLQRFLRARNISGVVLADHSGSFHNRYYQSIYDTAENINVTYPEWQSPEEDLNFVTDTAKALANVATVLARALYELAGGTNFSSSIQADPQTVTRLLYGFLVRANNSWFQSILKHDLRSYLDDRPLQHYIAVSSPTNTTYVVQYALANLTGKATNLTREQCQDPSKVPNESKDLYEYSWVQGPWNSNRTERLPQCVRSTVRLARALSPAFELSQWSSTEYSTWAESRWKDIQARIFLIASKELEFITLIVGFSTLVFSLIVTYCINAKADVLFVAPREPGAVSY

[3] = target: T2, AEA-DA lipid probe targets in Neuro2a cells (Mus musculus, UniProt Q61035)
T2 sequence (Q61035 1-509): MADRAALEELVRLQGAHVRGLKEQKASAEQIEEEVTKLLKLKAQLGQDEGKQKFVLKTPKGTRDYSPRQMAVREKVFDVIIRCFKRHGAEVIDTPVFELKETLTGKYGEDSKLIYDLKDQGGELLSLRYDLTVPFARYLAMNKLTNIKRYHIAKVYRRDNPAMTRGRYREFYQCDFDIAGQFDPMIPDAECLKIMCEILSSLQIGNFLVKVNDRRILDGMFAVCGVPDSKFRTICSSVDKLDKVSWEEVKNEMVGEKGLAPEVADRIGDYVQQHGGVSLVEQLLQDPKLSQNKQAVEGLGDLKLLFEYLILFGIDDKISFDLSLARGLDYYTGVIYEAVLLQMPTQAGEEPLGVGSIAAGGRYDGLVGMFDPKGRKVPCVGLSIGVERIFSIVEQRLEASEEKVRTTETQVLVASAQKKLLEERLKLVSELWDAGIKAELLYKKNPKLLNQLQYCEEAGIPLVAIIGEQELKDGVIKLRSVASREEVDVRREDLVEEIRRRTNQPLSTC

[4] = target: AEA-DA lipid probe targets in Neuro2a cells (Mus musculus, UniProt Q791T5)
Chain of AEA-DA lipid probe targets in Neuro2a cells (Mus musculus, UniProt Q791T5) (Q791T5 whole entry): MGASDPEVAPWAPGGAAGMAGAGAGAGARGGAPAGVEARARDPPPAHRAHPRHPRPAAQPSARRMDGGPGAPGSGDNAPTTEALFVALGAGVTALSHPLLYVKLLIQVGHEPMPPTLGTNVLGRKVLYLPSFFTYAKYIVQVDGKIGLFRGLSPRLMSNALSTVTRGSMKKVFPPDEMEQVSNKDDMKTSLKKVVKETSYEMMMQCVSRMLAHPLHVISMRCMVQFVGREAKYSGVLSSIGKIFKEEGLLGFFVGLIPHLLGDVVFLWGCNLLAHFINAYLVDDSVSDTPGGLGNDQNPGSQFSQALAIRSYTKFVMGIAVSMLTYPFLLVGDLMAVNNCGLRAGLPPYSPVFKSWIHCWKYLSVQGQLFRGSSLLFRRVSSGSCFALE

[5] = target: AEA-DA lipid probe targets in Neuro2a cells (Mus musculus, UniProt Q8BUV8)
Chain of AEA-DA lipid probe targets in Neuro2a cells (Mus musculus, UniProt Q8BUV8) (Q8BUV8 34-551): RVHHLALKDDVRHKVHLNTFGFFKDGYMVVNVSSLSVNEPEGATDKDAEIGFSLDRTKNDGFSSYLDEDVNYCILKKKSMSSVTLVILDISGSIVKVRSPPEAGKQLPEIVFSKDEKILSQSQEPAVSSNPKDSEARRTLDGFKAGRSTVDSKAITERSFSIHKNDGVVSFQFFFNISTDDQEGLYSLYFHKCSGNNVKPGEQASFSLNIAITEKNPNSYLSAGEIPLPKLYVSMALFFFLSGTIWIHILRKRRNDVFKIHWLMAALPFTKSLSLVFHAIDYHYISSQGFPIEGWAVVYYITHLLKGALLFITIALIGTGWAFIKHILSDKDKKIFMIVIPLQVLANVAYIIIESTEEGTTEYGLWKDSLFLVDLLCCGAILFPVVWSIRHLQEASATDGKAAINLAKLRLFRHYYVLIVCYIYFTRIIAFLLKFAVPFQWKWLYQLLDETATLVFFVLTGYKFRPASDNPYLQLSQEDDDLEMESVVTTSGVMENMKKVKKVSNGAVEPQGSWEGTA

[6] = target: T3, AEA-DA lipid probe targets in Neuro2a cells (Mus musculus, UniProt Q8VBZ3)
T3 sequence (Q8VBZ3 1-664): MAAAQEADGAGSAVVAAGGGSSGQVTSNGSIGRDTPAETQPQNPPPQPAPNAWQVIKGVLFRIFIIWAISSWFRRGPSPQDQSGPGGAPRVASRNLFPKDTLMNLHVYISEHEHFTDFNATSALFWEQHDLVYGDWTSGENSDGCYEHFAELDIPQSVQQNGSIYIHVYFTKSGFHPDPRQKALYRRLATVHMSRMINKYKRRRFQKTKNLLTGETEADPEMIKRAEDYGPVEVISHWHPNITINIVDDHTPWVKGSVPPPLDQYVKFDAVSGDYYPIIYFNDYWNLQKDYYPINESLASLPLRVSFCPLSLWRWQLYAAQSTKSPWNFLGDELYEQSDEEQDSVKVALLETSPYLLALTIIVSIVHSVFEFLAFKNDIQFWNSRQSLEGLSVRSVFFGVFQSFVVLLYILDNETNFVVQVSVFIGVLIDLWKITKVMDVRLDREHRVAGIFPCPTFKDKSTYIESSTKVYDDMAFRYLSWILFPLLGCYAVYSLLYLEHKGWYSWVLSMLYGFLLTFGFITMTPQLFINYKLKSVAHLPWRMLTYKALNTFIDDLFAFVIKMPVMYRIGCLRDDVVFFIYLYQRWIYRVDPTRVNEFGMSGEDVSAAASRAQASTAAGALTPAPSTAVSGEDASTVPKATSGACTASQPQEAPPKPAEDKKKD

[7] = target: T4, AEA-DA lipid probe targets in Neuro2a cells (Mus musculus, UniProt Q9R0P6); settings: for SILAC ratio, SEC11A (P67812): Neuro2a cells, AEA-DA probe
T4 sequence (Q9R0P6 1-179): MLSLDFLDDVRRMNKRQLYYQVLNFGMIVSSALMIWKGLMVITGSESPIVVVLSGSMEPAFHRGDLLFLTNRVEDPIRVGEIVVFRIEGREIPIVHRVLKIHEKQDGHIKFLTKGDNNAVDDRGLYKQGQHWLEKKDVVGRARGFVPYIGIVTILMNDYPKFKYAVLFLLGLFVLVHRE

[8] = target: T5, AEA-DA lipid probe targets in Neuro2a cells (Mus musculus, UniProt Q9WTQ8)
T5 sequence (Q9WTQ8 1-209): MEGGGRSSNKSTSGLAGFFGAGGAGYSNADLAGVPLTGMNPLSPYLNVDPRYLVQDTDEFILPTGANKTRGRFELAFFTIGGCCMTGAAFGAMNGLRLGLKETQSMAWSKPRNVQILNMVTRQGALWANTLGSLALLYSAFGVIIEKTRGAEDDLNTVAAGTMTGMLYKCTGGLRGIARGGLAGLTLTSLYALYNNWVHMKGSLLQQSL

CCCCC/C=C\C/C=C\C/C=C\C/C=C\CCCC(=O)NCCO [AEA, anandamide, reference compound]
SILAC ratio MLV-related ([1]; competitor 200 μM): 1.4
SILAC ratio Ncstn ([2]; competitor 200 μM): 1.6
SILAC ratio Hars ([3]; competitor 200 μM): 1.2
SILAC ratio Mtch1 ([4]; competitor 200 μM): 1.4
SILAC ratio, Gpr107 ([5]; competitor 200 μM): 1.6
SILAC ratio, Clptm1 ([6]; competitor 200 μM): 2.3
SILAC ratio, SEC11A (P67812) ([7]; competitor 200 μM): 1.9
SILAC ratio, Sec11a ([7]; competitor 200 μM): 1.9
SILAC ratio, Timm23 ([8]; competitor 200 μM): 1.8

O=C(/C=C/c1cccnc1)NCCCCC1CCN(C(=O)c2ccccc2)CC1 [FK-866, reference compound]
SILAC ratio MLV-related ([1]; competitor 25 μM): 1.1
SILAC ratio Ncstn ([2]; competitor 25 μM): 1.1
SILAC ratio Hars ([3]; competitor 25 μM): 1.3
SILAC ratio Mtch1 ([4]; competitor 25 μM): 1.0
SILAC ratio, Gpr107 ([5]; competitor 25 μM): 1.0
SILAC ratio, Clptm1 ([6]; competitor 25 μM): 1.1
SILAC ratio, SEC11A (P67812) ([7]; competitor 25 μM): 1.1
SILAC ratio, Sec11a ([7]; competitor 25 μM): 1.1
SILAC ratio, Timm23 ([8]; competitor 25 μM): 1.1

CN1CCN(C(=O)c2c(-c3ccccc3)c3cc([N+](=O)[O-])ccc3n2C)CC1 [KML110, (1-Methyl-5-nitro-3-phenyl-1H-indol-2-yl)(4-methylpiperazin-1-yl)methanone]
SILAC ratio MLV-related ([1]; competitor 25 μM): 1.2
SILAC ratio Ncstn ([2]; competitor 25 μM): 1.3
SILAC ratio Hars ([3]; competitor 25 μM): 1.5
SILAC ratio Mtch1 ([4]; competitor 25 μM): 1.2
SILAC ratio, Gpr107 ([5]; competitor 25 μM): 1.5
SILAC ratio, Clptm1 ([6]; competitor 25 μM): 1.5
SILAC ratio, Sec11a ([7]; competitor 25 μM): 1.6
SILAC ratio, Timm23 ([8]; competitor 25 μM): 1.3

CN1CCN(C(=O)c2[nH]c3ccc([N+](=O)[O-])cc3c2-c2ccccc2)CC1 [MJN228, (4-Methylpiperazin-1-yl)(5-nitro-3-phenyl-1H-indol-2-yl)methanone]
SILAC ratio MLV-related ([1]; competitor 10 μM): 1.8
SILAC ratio MLV-related ([1]; competitor 25 μM): 1.8
SILAC ratio MLV-related ([1]; competitor 50 μM): 1.7
SILAC ratio MLV-related ([1]; competitor 100 μM): 2.5
SILAC ratio Ncstn ([2]; competitor 10 μM): 1.3
SILAC ratio Ncstn ([2]; competitor 25 μM): 1.6
SILAC ratio Ncstn ([2]; competitor 50 μM): 1.2
SILAC ratio Ncstn ([2]; competitor 100 μM): 1.8
SILAC ratio Hars ([3]; competitor 10 μM): 1.6
SILAC ratio Hars ([3]; competitor 25 μM): 1.5
SILAC ratio Hars ([3]; competitor 50 μM): 1.0
SILAC ratio Hars ([3]; competitor 100 μM): 1.4
SILAC ratio Mtch1 ([4]; competitor 10 μM): 1.1
SILAC ratio Mtch1 ([4]; competitor 25 μM): 1.2
SILAC ratio Mtch1 ([4]; competitor 50 μM): 1.0
SILAC ratio Mtch1 ([4]; competitor 100 μM): 1.2
SILAC ratio, Gpr107 ([5]; competitor 10 μM): 1.1
SILAC ratio, Gpr107 ([5]; competitor 25 μM): 1.3
SILAC ratio, Gpr107 ([5]; competitor 50 μM): 2.1
SILAC ratio, Gpr107 ([5]; competitor 100 μM): 2.9
SILAC ratio, Clptm1 ([6]; competitor 10 μM): 1.3
SILAC ratio, Clptm1 ([6]; competitor 25 μM): 1.6
SILAC ratio, Clptm1 ([6]; competitor 50 μM): 1.6
SILAC ratio, Clptm1 ([6]; competitor 100 μM): 2.5
SILAC ratio, SEC11A (P67812) ([7]; competitor 25 μM): 1.6
SILAC ratio, Sec11a ([7]; competitor 10 μM): 1.2
SILAC ratio, Sec11a ([7]; competitor 25 μM): 1.6
SILAC ratio, Sec11a ([7]; competitor 50 μM): 1.7
SILAC ratio, Sec11a ([7]; competitor 100 μM): 2.3
SILAC ratio, Timm23 ([8]; competitor 10 μM): 1.0
SILAC ratio, Timm23 ([8]; competitor 25 μM): 1.2
SILAC ratio, Timm23 ([8]; competitor 50 μM): 1.3
SILAC ratio, Timm23 ([8]; competitor 100 μM): 1.5

C=CCN(C)CCCCCCOc1ccc(C(=O)c2ccc(Br)cc2)c(F)c1 [Ro 48-8071, reference compound]
SILAC ratio MLV-related ([1]; competitor 25 μM): 1.0
SILAC ratio Ncstn ([2]; competitor 25 μM): 1.0
SILAC ratio Hars ([3]; competitor 25 μM): 0.9
SILAC ratio Mtch1 ([4]; competitor 25 μM): 0.9
SILAC ratio, Gpr107 ([5]; competitor 25 μM): 1.8
SILAC ratio, Clptm1 ([6]; competitor 25 μM): 1.2
SILAC ratio, SEC11A (P67812) ([7]; competitor 25 μM): 1.6
SILAC ratio, Sec11a ([7]; competitor 25 μM): 1.6
SILAC ratio, Timm23 ([8]; competitor 25 μM): 1.0
